From US20210230526A1, “Cell enclosure device and use for same” (National Agriculture and Food Research Organization, priority 2016, published 2021)

Tested on: HepG2 cells
Assay: Metabolism of model drug (fluorescein diacetate) by HepG2 cell hepatic tissue-type chip and excretion and accumulation of metabolites to bile canaliculus-like structure
Type: in vitro ADME, human
Details: for distribution of fluorescein metabolized by HepG2 cells (green fluorescence): 1 hour uptake, after washing twice
Procedure: (1) A culture medium containing fluorescein diacetate (FD) as a model drug at a concentration of 250 μg/mL was prepared, and 5 mL thereof was poured into a dish (60 mm in diameter ).
(2) Next, the hepatic tissue-type chip on day 7 of culturing produced using HepG2 cells in Example 1 was immersed in the FD-containing culture medium prepared in (1) and cultured for 1 hour, such that the FD was taken into the cells.
(3) Next, the chip was transferred into a new dish (diameter: 60 mm), into which 5 mL of Hank's Balanced Salt Solution (HBSS) was poured, and washed.
(4) Next, the hepatic tissue-type chip was transferred into a new dish (diameter 60 mm ) into which 5 mL of a fresh culture medium was poured, immersed in the culture medium, and cultured for 1 hour. The discharging of fluorescein in the cells after 1 hour was confirmed by observation with a phase contrast microscope and a fluorescence microscope (refer to FIG. 8(A) to FIG. 8(C)).
(1) HBSS containing fluorescein diacetate (FD) as a model drug at a concentration of 25 μg/mL was prepared, and 5 mL thereof was poured into a dish (60 mm in diameter).
(2) Next, on day 32 of culturing, the hepatic tissue-type chip produced using HepG2 cells in Example 3 was immersed in the FD-containing HBSS prepared in (1) and cultured for 1 hour such that the FD was taken into the cells.
(3) Next, the result was transferred into a new dish (diameter 60 mm) into which 5 mL of HBSS was poured, and washed.
(4) Next, the hepatic tissue-type chip was transferred into a new dish (diameter 60 mm) into which 5 mL of fresh HBSS was poured, immersed in HBSS, and cultured for 1 hour. The discharge of fluorescein in the cells after 1 hour was confirmed by observation with a phase contrast microscope and a fluorescence microscope (refer to FIG. 12A (phase contrast microscope image) and FIG. 12B (fluorescence microscope image)). […]

distribution of fluorescein metabolized by HepG2 cells (green fluorescence) (Example 2, chip on day 7 of culturing, FD 250 μg/mL in culture medium): uniformly distributed in the cytoplasm
distribution of fluorescein metabolized by HepG2 cells (green fluorescence) (Example 4, chip on day 32 of culturing, FD 25 μg/mL in HBSS): uniformly distributed in the cytoplasm
distribution of fluorescein metabolized by HepG2 cells (green fluorescence) (Example 10, chip on day 35 of culturing, FD 25 μg/mL in HBSS): uniformly distributed in the cytoplasm
SMILES: O=C1OC2(c3ccc(O)cc3Oc3cc(O)ccc32)c2ccccc21 [fluorescein]
excretion of fluorescein from the cells (Example 2, chip on day 7 of culturing, 1 hour further culture in fresh culture medium after washing): excreted and accumulated in the bile canaliculus-like structure
excretion of fluorescein from the cells (Example 4, chip on day 32 of culturing, 1 hour further culture in fresh HBSS after washing): excreted and accumulated in the bile canaliculus-like structure
excretion of fluorescein from the cells (Example 10, chip on day 35 of culturing, 1 hour further culture in fresh HBSS after washing): excreted and accumulated in the bile canaliculus-like structure
